Test results from publication PMC11929074, “An in vitro platform for the enzymatic characterization of the rhomboid protease RHBDL4” (The Journal of Biological Chemistry, 2025).
Each block holds one molecule with its values, some of them ahead of it. *1 amine or outer side, *2 acyl side, *3 side chain or, on linkers, in order; H or OH if unused. Where a SMILES comes first, the peptide text is derived from it. [ ]: non-standard residue; d: D form. The star is where a group is joined. NH(4-phenylbutyl) = c1ccc(CCCCN*)cc1; X1 = C[C@H](N[*:1])C(=O)C(=O)[*:2]

Columns and labels:
recombinant human RHBDL4 [1] = molecular target: T1, recombinant human RHBDL4 (Homo sapiens, UniProt Q8TEB9); test: Inhibition of RHBDL4 proteolysis of IQ6 (FRET-based in vitro assay); type: biochemical; settings: IQ6 substrate; for inhibition of RHBDL4 proteolytic activity: increasing concentrations, 1 h pre-incubation, 2 h reaction, n = 3
T1 construct: The entire RHBDL4 and RHBDL4-S144A cDNAs were subcloned into the pcDNA3.1 vector; 6xHis (C, cleaved yes); made in house; host or cells: Freestyle 293-F cells (transient transfection, pcDNA3.1-HisA)
T1 sequence (Q8TEB9 1-315): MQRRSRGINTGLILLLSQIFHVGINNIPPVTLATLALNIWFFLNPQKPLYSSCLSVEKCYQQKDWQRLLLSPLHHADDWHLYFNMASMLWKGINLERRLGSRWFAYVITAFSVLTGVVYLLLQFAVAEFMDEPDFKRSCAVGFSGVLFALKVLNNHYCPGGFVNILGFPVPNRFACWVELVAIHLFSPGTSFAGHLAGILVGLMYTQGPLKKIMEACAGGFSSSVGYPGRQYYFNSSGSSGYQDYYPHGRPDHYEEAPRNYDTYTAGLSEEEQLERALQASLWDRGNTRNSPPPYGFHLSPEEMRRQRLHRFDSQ
Description: (§1) B, schematic representation of the peptidyl-α-ketoamide scaffold with peptide sequence P5-P1 at the nonprime side and hydrophobic substituent (R) at the prime side. C, schematic representation of the peptidyl-α-ketoamide inhibitor, compound 1a/1b. D, representative inhibition curve derived from measuring rates of RHBDL4 proteolysis of the fluorescent substrate IQ6 with increasing concentrations of compound 1a. E, same as (D), except inhibition curve was derived from using increasing concentrations of compound 1b. […] Reactions were quenched with 1 keLaemmli buffer and loaded on 12% SDS-PAGE gel. Post-transfer membranes were visualized using a fluorescence Cy3 filter and by Western blotting using an α-His antibody. For (A, D, and E), all inhibitors were pre-incubated with RHBDL4 for 1 h and allowed to react with the IQ6 substrate for 2 h.
(§2) B, representative inhibition curve derived from measuring rates of RHBDL4 proteolysis of the fluorescent substrate IQ6 with increasing concentrations of compound 3. C, same as (B), except inhibition curve was derived from using increasing concentrations of compound 4. […] Reactions were quenched with 1 RLaemmli buffer and loaded on 12% SDS-PAGE gel. Post-transfer membranes were visualized using a fluorescence Cy3 filter and by Western blotting using an α-His antibody. E, saturation curve of RHBDL4 using fluorescent substrate, KSp207. For (B and C), all inhibitors were pre-incubated with RHBDL4 for 1 h and allowed to react with the IQ6 substrate for 2 h. […] I assigned them to the substrate KSp207, which is named on the x-axis and in the inset table.
(§3) The enzymatic assay was performed as previously described (Arutyunova et al., 2014, ([26])). […] The FRET-based cleavage assay was conducted in a fluorescence multiwell plate reader (SynergyMx, BioTek). Upon excitation at 320 nm, the emission intensity at 400 nm was recorded for 2 h at minimal intervals under shaking conditions and plotted using the GraphPad PRISM software. The initial velocities were defined as the slopes of the curve of the generated product as a function of time. The plots of the generated product against the corresponding substrate concentration were fitted with the Michaelis–Menten equation. Catalytic parameters were extrapolated using GraphPad PRISM. […] The samples were desalted using C18 tips (Rainin), eluted in 80% acetonitrile, and dried down in a vacuum centrifuge prior to mass spectrometry analysis.

[2] = tested on: WT RHBDL4 (recombinant, purified); test: TAMRA-FP competition labelling on recombinant RHBDL4; type: binding, human; settings: in-gel Cy3 fluorescence, compared with inactive RHBDL4-S144A control
Description: as §1, §2

recombinant human RHBDL4 [3] = molecular target: T1, recombinant human RHBDL4; test: FRET-based cleavage assay with fluorescent (IQ / KSp207) substrates; type: biochemical; settings: for kcat / pH of highest RHBDL4 protease activity / salt concentration range with satisfactory activity: triplicate; for kcat: average ± S.E.M.; for pH of highest RHBDL4 protease activity: pH range 5 to 10; for salt concentration range with satisfactory activity: salt tested 100 to 300 mM
Experimental: Figure 2 Kinetic characterization of recombinant human RHBDL4.A, schematic representation of the FRET-based cleavage assay using internally quenched (IQ) substrates. B, saturation curves of RHBDL4 using the fluorescent IQ substrates, IQ6, IQ41, and IQ46. C, pH dependence of the RHBDL4 protease activity using substrates IQ6, IQ41, and IQ46. D, salt concentration dependence of the RHBDL4 protease activity using substrates IQ6, IQ41, and IQ46. All the assays were performed in triplicate, and data points are represented by the average ± S.E.M. TEXT PRINTED IN THE PICTURE: (B) IQ 6: KM(μM) 10.73±2; Kcat(hr^-1) 7.33±0.6 | (B) IQ 41: KM(μM) 5.63±2; Kcat(hr^-1) 2.41±0.6 | (B) IQ 46: KM(μM) 7.19±1; Kcat(hr^-1) 3.62±0.8
(§4) The reaction setup in our FRET assay enabled the direct determination of Michaelis–Menten kinetic parameters Km and kcat for the cleavage of IQ6, IQ41, and IQ46 by RHBDL4. Our fluorescence reading data were converted to μM/h using the standard calibration curve for all three IQ substrates, and the correction factor for the inner filter effect was applied. We confirmed that purified RHBDL4 followed Michaelis–Menten kinetics with KmIQ6=10.73±2μΜ , KmIQ41=5.63±2μΜ , and KmIQ46=7.19±1μΜ and kcatIQ6=7.33±0.6h^−1 , kcatIQ41=2.41±0.6h^−1 , and kcatIQ46=3.62±0.08h^−1 (Figs. 2B and S2B).
Our FRET-based assay is a suitable platform for optimizing conditions that enhance RHBDL4 protease activity. To this end, we selected the optimal pH for RHBDL4 protease activity and performed FRET-based assays with IQ6, IQ41, and IQ46 at a pH range of 5 to 10. […] The optimal salt concentration for the RHBDL4 protease activity was also tested in the range of 100 to 300 mM (Fig. 2D). We conclude that with the IQ6, IQ41, and IQ46 substrates, RHBDL4 had satisfactory activity in a salt concentration range of 100 to 300 mM.
as §2, with “Figure 5 In vitro inhibition of RHBDL4 activity with TMED7-derived peptidyl α-ketoamides.A, schematic representation of the peptidyl-α-ketoamide inhibitor, compound 3 and 4. B,” for “B,”
as §3
All the calculations for Km, Vmax, and Kcat for RHBDL4 and its mutants were performed using GraphPad PRISM.

[4] = molecular target: T2, WT RHBDL4 (human rhomboid protease RHBDL4, recombinant) (human) (UniProt Q8TEB9)
T2 sequence: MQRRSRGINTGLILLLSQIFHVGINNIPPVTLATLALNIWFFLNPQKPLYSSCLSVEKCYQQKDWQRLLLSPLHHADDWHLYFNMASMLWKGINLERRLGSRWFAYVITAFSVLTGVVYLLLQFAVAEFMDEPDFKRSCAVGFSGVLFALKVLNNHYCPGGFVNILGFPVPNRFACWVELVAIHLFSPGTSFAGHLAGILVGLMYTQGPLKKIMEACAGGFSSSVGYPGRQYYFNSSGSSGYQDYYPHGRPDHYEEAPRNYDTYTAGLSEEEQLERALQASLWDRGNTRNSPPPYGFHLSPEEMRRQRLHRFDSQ

RHBDL4-S144A = test: FRET-based cleavage by inactive RHBDL4-S144A; type: biochemical, human; settings: pH 8, 37 °C
Description: as §4
Figure 3 Dependence of conserved rhomboid motifs on RHBDL4 protease activity.A, RHBDL4 representation highlighting TM1–6 (in green), the VBM- and UIM-binding motifs (in blue), the conserved rhomboid motifs (WR and Gx3G), and the serine-histidine catalytic dyad (in pink). The table indicates the RHBDL4 region, the conserved rhomboid motifs, and amino acid mutation. The RHBDL4 proteolytic activity. B, size-exclusion chromatography profile of RHBDL4-AR and RHBDL4-Ax3G, being eluted as a monomeric protein. C, coomassie staining and Western blotting using an α-His antibody of concentrated purified RHBDL4-AR and RHBDL4-Ax3G. D, activity profiles of the WT RHBDL4 and mutant RHBDL4-S144A, RHBDL4-AR, and RHBDL4-Ax3G proteins, as measured by cleavage of the fluorescent substrate IQ6. Assay was performed in triplicate (n = 3), and data points are represented by the average ± S.E.M. Statistically significant differences compared to WT RHBDL4 are indicated (pairwise Dunnett's test followed by Bonferroni's post hoc analysis; ∗p < 0.05, n.s., no significance).
The enzymatic assay was performed as previously described (Arutyunova et al., 2014, ([26])). […] The FRET-based cleavage assay was conducted in a fluorescence multiwell plate reader (SynergyMx, BioTek). Upon excitation at 320 nm, the emission intensity at 400 nm was recorded for 2 h at minimal intervals under shaking conditions and plotted using the GraphPad PRISM software. […]

[5] = Michaelis-Menten, 1.5 μM RHBDL4, 37 °C, 2 h, pH 8.0, 150 mM NaCl, 0.1% DDM

Molecule: O=c1oc(Cl)c(Cl)c2ccccc12 [3,4-dichloroisocoumarin]
inhibition of RHBDL4 proteolytic activity (recombinant human RHBDL4 [1]): inhibited the RHBDL4 proteolytic activity only at higher concentrations (100 μM)

Molecule: Cl.NCCc1ccc(S(=O)(=O)F)cc1 [4-(2-aminoethyl) benzenesulfonyl fluoride hydrochloride]
inhibition of RHBDL4 proteolytic activity (recombinant human RHBDL4 [1]): weak inhibition at all concentrations tested

Molecule: Cc1ccc(S(=O)(=O)N[C@@H](Cc2ccccc2)C(=O)CCl)cc1 [N-p-tosyl-L-phenylalanine chloromethyl ketone]
inhibition of RHBDL4 proteolytic activity (recombinant human RHBDL4 [1]): weak inhibition at all concentrations tested

Molecule: CC(=O)N[C@H](C(=O)N[C@@H](CCCNC(=N)N)C(=O)NC(Cc1c[nH]cn1)C(=O)N[C@@H](C)C(=O)C(=O)N[C@H](COCc1ccccc1)Cc1ccccc1)C(C)C (stereo partly shown) [compound 1a]
competition with TAMRA-FP probe (fluorescent signal) [2]: significant reduction of fluorescent signal

Molecule: CC(=O)N[C@H](C(=O)N[C@@H](CCCNC(=N)N)C(=O)NC(Cc1c[nH]cn1)C(=O)N[C@@H](C)C(=O)C(=O)N[C@H](COCc1ccccc1)Cc1ccccc1)C(C)C (stereo partly shown) [compound 1b]
competition with TAMRA-FP probe (fluorescent signal) [2]: significant reduction of fluorescent signal

IC50 (recombinant human RHBDL4 [1]; inhibitor pre-incubated with RHBDL4 for 1 h, then reacted with IQ6 for 2 h, n = 3, average ± S.E.M.): 3.4 ± 1.2 µM
Molecule: CC(=O)N1CCC[C@H]1C(=O)NCC(=O)N[C@@H](Cc1ccccc1)C(=O)N[C@@H](CO)C(=O)N[C@@H](C)C(=O)C(=O)NCCCCc1ccccc1 [compound 2] (Ac-PGFS[X1]-{NH(4-phenylbutyl)})

Molecule: Ac-QMESA-4mc [KSp207, TMED7-derived fluorescent substrate Ac-QMESA-4mc]
cleavage rate/efficiency relative to other substrates (recombinant human RHBDL4 [3]; FRET-based assay): higher enzymatic cleavage efficiency than IQ6
kcat (recombinant human RHBDL4 [3]; [5]): 0.003069 ± 0.00022 s⁻¹
catalytic rate (cleavage rate) (recombinant human RHBDL4 [3]; approximate, discussion): ~11 h⁻¹

IC50 of inhibition of RHBDL4 proteolysis of the fluorescent substrate IQ6 (in vitro FRET-based activity assay; 1 h pre-incubation, 2 h reaction) [4]: 2.31 µM
Molecule: compound 1a (peptidyl α-ketoamide, Ac-VRHA-CONH-CH(Bn)-CH2OBn) (peptide)

IC50 of inhibition of RHBDL4 proteolysis of the fluorescent substrate IQ6 (in vitro FRET-based activity assay; 1 h pre-incubation, 2 h reaction) [4]: 6.1 µM
Molecule: compound 1b (peptidyl α-ketoamide, Ac-VRHA-CONH-CH(Bn)-CH2OBn) (peptide)

Molecule: mca-FLVRGK(dnp) [IQ46, fluorescent internally quenched substrate mca-FLVRGK(dnp)]
cleavage by inactive RHBDL4-S144A (increase in fluorescence / activity) (RHBDL4-S144A): negligible increase in fluorescence
kcat (recombinant human RHBDL4 [3]; 37 °C, pH 8.0): 0.00101 ± 0.00022 s⁻¹
kcat (recombinant human RHBDL4 [3]; [5]): 0.00101 ± 2.2e-05 s⁻¹
pH of highest RHBDL4 protease activity (recombinant human RHBDL4 [3]): 8
salt concentration range with satisfactory activity (recombinant human RHBDL4 [3]): 100 to 300 mM

Molecule: mca-FVTKGK(dnp) [IQ41, fluorescent internally quenched substrate mca-FVTKGK(dnp)]
cleavage by inactive RHBDL4-S144A (increase in fluorescence / activity) (RHBDL4-S144A): negligible increase in fluorescence
kcat (recombinant human RHBDL4 [3]; 37 °C, pH 8.0): 0.000669 ± 0.00017 s⁻¹
kcat (recombinant human RHBDL4 [3]; [5]): 0.000669 ± 0.00017 s⁻¹
pH of highest RHBDL4 protease activity (recombinant human RHBDL4 [3]): 7
salt concentration range with satisfactory activity (recombinant human RHBDL4 [3]): 100 to 300 mM

IC50 of inhibition of RHBDL4 activity (in vitro FRET-based activity assay) [4]: 3.4 µM
B1: compound 2 (IQ6-derived peptidyl α-ketoamide, Ac-PGFSA-CONH-(CH2)4-Ph) (peptide)
peptide: Ac-PGFSA-{α‑ketoamide CONH‑(CH2)4‑Ph}
